Results on nine compounds are retold here after US20230330254A1 (Regeneron Pharmaceuticals, Inc., priority 2022, published 2023).

SMILES strings stand for the structures. pEC50: −log10 of the molar value. Where a SMILES comes first, the peptide text is derived from it. [ ]: non-standard residue; d: D form. The star is where a group is joined. Bip(2'-Et,4'-O(CH2)4NH2) = CCc1cc(OCCCCN)ccc1-c1ccc(C[C@H](N)C(=O)O)cc1; Nva(5-(3,5-Me2Ph)) = Cc1cc(C)cc(CCC[C@H](N)C(=O)O)c1; Ala(1H-tetrazol-5-yl) = N[C@@H](Cc1nnn[nH]1)C(=O)O; αMePhe(2-F) = C[C@](N)(Cc1ccccc1F)C(=O)O; X9 = O=C([C@@H]1CCN(CCc2cnc[nH]2)C1)*; X8 = O=C([C@H]1CCN(CCc2cnc[nH]2)C1)*

Sequence of human GLP1R (P43220 24-463): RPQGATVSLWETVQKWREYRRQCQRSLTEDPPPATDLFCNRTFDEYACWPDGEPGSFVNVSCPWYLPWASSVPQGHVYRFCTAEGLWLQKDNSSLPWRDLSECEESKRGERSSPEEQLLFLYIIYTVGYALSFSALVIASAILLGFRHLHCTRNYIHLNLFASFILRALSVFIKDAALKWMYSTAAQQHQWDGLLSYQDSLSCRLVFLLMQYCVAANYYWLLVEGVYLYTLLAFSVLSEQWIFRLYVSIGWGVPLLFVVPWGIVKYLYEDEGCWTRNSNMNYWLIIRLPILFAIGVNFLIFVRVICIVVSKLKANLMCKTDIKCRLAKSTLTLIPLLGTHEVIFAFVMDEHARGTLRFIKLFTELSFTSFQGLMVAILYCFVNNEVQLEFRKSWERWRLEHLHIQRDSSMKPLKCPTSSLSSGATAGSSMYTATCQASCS

The first assay concerns the target human GLP1R (Homo sapiens, UniProt P43220). The experiment in a line: Human GLP1R cAMP accumulation assay. Type of assay: cell-based.
Settings: not given
More on the design: HEK293 cells over-expressing full length human GLP-1R were utilized; expressed in transfected cells; host or cells: HEK293 (HEK293/hGLP1R). Here is the method:
8.1 Human GLP1R cAMP Accumulation Assay (Cyclic AMP Determination)
The functional activity of the test compounds for agonizing GLP1R were evaluated using a cell-based assay. For the assay, HEK293 cells over-expressing full length human GLP-1R were utilized and the downstream cAMP accumulation was assessed as a measure of human GLP-1R stimulation. […] Diluted compounds were transferred to OptiPlates (100 nL/well) using an Echo liquid handler. HEK293/hGLP1R cells were thawed in 37° C. water-bath, washed 2 times with HBSS and re-suspended in assay buffer (HBSS+5 mM HEPES+500 μM IBMX+0.1% BSA). […] After centrifugation, the assay plate was incubated at 23° C. for 30 min. The reaction was terminated by adding 10 μL of lysis buffer containing D2-cAMP and a cAMP-antibody from the cyclic AMP immunoassay kit (Cisbio, Cat #62AM4PEJ). […] The levels of cAMP per well were calculated using a standard curve generated by GraphPad Prism. Percent activity was calculated according to the formula (% Activity=100%*(cAMP level-LC)/(HC-LC)). EC50 values were fitted from a four-parameter logistic equation over a 10-point response curve (GraphPad Prism).
A general note: Cyclic AMP is a second messenger, typically raised through Gs and lowered through Gi signalling.
Usually pEC50 stands for −log10 of the EC50, conventionally taken in molar units. In turn, `CCc1cc(OCCCCNC(=O)CCOCCOCCOCCOCCOCCOCCOCCOCCOCCOCCOCCOCCOCCOCCOCCOCCOCCOCCOCCOCCOCCOCCOCCOCCNC(=O)CCC(=O)N2Cc3ccccc3-c3nnn(CC4OC5OC6C(CO)OC(OC7C(CO)OC(OC8C(CO)OC(OC9C(CO)OC(OC%10C(CO)OC(OC4C(O)C5O)C(O)C%10O)C(O)C9O)C(O)C8O)C(O)C7O)C(O)C6O)c3-c3ccccc32)ccc1-c1ccc(C[C@H](NC(=O)[C@H](CC(=O)O)NC(=O)[C@H](CO)NC(=O)[C@@H](NC(=O)[C@](C)(Cc2ccccc2F)NC(=O)[C@@H](NC(=O)CNC(=O)[C@H](Cc2nn[nH]n2)NC(=O)C(C)(C)C(=O)NCCc2cnc[nH]2)[C@@H](C)O)[C@@H](C)O)C(=O)N[C@@H](CCCc2cc(C)cc(C)c2)C(N)=O)cc1` (stereo partly drawn) [LP22, cyclo-dex-trin-triazole-DIBAC-suc-PEG24-P9] showed a negative logarithm of the EC50 (pEC50) of 8.57.

Still in this assay, the particulars now being: HEK293/hGLP1R cells; Table 4; read-out: cAMP EC50.
Consider `CCc1cc(OCCCCN)ccc1-c1ccc(C[C@H](NC(=O)[C@H](CC(=O)O)NC(=O)[C@H](CO)NC(=O)[C@@H](NC(=O)[C@](C)(Cc2ccccc2F)NC(=O)[C@@H](NC(=O)CNC(=O)[C@H](Cc2nn[nH]n2)NC(=O)[C@]2(C)CCN(CCc3cnc[nH]3)C2=O)[C@@H](C)O)[C@@H](C)O)C(=O)N[C@@H](CCCc2cc(C)cc(C)c2)C(N)=O)cc1` [P14-S], for which the negative logarithm of the EC50 (pEC50) is 9.14.
On to `CCc1cc(OCCCCN)ccc1-c1ccc(C[C@H](NC(=O)[C@H](CC(=O)O)NC(=O)[C@H](CO)NC(=O)[C@@H](NC(=O)[C@](C)(Cc2ccccc2F)NC(=O)[C@@H](NC(=O)CNC(=O)[C@H](Cc2nn[nH]n2)NC(=O)[C@@H]2CCN(CCc3cnc[nH]3)C2)[C@@H](C)O)[C@@H](C)O)C(=O)N[C@@H](CCCc2cc(C)cc(C)c2)C(N)=O)cc1` [P17-R] (X9-[Ala(1H-tetrazol-5-yl)]GT[αMePhe(2-F)]TSD[Bip(2'-Et,4'-O(CH2)4NH2)][Nva(5-(3,5-Me2Ph))]-NH2), for which the negative-log EC50 (pEC50) is 7.95.
`CCc1cc(OCCCCNC(=O)CNC(=O)CNC(=O)CNC(=O)CNC(=O)[C@H](CO[C@@H]2OC(CO)[C@@H](O)C(O)C2O)NC(=O)CCC(=O)N2Cc3ccccc3C#Cc3ccccc32)ccc1-c1ccc(C[C@H](NC(=O)[C@H](CC(=O)O)NC(=O)[C@H](CO)NC(=O)[C@@H](NC(=O)[C@](C)(Cc2ccccc2F)NC(=O)[C@@H](NC(=O)CNC(=O)[C@H](Cc2nn[nH]n2)NC(=O)C(C)(C)C(=O)NCCc2cnc[nH]2)[C@@H](C)O)[C@@H](C)O)C(=O)N[C@@H](CCCc2cc(C)cc(C)c2)C(N)=O)cc1` (stereo partly drawn) [LP20, DIBAC-suc-(glucose) SG4-P9]: the pEC50 is 9.50.
As for `CCc1cc(OCCCCN)ccc1-c1ccc(C[C@H](NC(=O)[C@H](CC(=O)O)NC(=O)[C@H](CO)NC(=O)[C@@H](NC(=O)[C@](C)(Cc2ccccc2F)NC(=O)[C@@H](NC(=O)CNC(=O)[C@@H](N)CCC(N)=O)[C@@H](C)O)[C@@H](C)O)C(=O)N[C@@H](CCCc2cc(C)cc(C)c2)C(N)=O)cc1` [P20, (3S)-4-[[(1S)-1-[[4-[4-(4-aminobutoxy)-2-ethyl-phenyl]phenyl]methyl]-2-[[(1S)-1-carbamoyl-4-(3,5-dimethylphenyl)butyl]amino]-2-oxo-ethyl]amino]-3-[[(2S)-2-[[(2S,3R)-2-[[(2S)-2-[[(2S,3R)-2-[[2-[[(2S)-2,5-diamino-5-oxopentanoyl]amino]acetyl]amino]-3-hydroxy-butanoyl]amino]-3-(2-fluorophenyl)-2-methyl-propanoyl]amino]-3-hydroxybutanoyl]amino]-3-hydroxy-propanoyl]amino]-4-oxo-butanoic acid], the negative logarithm of the EC50 (pEC50) is 9.43.
The same measure, in the same setting: under `CCc1cc(OCCCCN)ccc1-c1ccc(C[C@H](NC(=O)[C@H](CC(=O)O)NC(=O)[C@H](CO)NC(=O)[C@@H](NC(=O)[C@](C)(Cc2ccccc2F)NC(=O)[C@@H](NC(=O)CNC(=O)[C@H](Cc2nn[nH]n2)NC(=O)[C@H]2CCN(CCc3cnc[nH]3)C2)[C@@H](C)O)[C@@H](C)O)C(=O)N[C@@H](CCCc2cc(C)cc(C)c2)C(N)=O)cc1` [P16-S] (X8-[Ala(1H-tetrazol-5-yl)]GT[αMePhe(2-F)]TSD[Bip(2'-Et,4'-O(CH2)4NH2)][Nva(5-(3,5-Me2Ph))]-NH2) stands 9.26; under `CCc1cc(OCCCCn2cc(COCCOCCOCCOCCNC(=O)CCC(=O)N3Cc4ccccc4C#Cc4ccccc43)nn2)ccc1-c1ccc(C[C@H](NC(=O)[C@H](CC(=O)O)NC(=O)[C@H](CO)NC(=O)[C@@H](NC(=O)[C@](C)(Cc2ccccc2F)NC(=O)[C@@H](NC(=O)CNC(=O)[C@H](Cc2nn[nH]n2)NC(=O)C(C)(C)C(=O)NCCc2cnc[nH]2)[C@@H](C)O)[C@@H](C)O)C(=O)N[C@@H](CCCc2cc(C)cc(C)c2)C(N)=O)cc1` [LP8, DIBAC-suc-PEG4-triazole-P8], 9.39; under `CCc1cc(OCCCCNC(=O)[C@@H](CO)NC(=O)CNC(=O)CNC(=O)CNC(=O)CNC(=O)COC2C#CCCCCC2)ccc1-c1ccc(C[C@H](NC(=O)[C@H](CC(=O)O)NC(=O)[C@H](CO)NC(=O)[C@@H](NC(=O)C(C)(Cc2ccccc2F)NC(=O)[C@@H](NC(=O)CNC(=O)[C@H](Cc2nn[nH]n2)NC(=O)C(C)(C)C(=O)NCCc2cnc[nH]2)[C@@H](C)O)[C@@H](C)O)C(=O)N[C@@H](CCCc2cc(C)cc(C)c2)C(N)=O)cc1` (stereo partly drawn) [LP19, COT-G4-(R)Ser-P9], 9.25.
Same read-out and setting: the figure for `CCc1cc(OCCCCNC(=O)CNC(=O)CNC(=O)CNC(=O)CNC(=O)[C@H](CO)NC(=O)CCC(=O)N2Cc3ccccc3C#Cc3ccccc32)ccc1-c1ccc(C[C@H](NC(=O)[C@H](CC(=O)O)NC(=O)[C@H](CO)NC(=O)[C@@H](NC(=O)[C@](C)(Cc2ccccc2F)NC(=O)[C@@H](NC(=O)CNC(=O)[C@H](Cc2nn[nH]n2)NC(=O)C(C)(C)C(=O)NCCc2cnc[nH]2)[C@@H](C)O)[C@@H](C)O)C(=O)N[C@@H](CCCc2cc(C)cc(C)c2)C(=O)Nc2ccccc2)cc1` [LP16, DIBAC-suc-SG4-P23] is 8.98.
